This is an account of results in ChEMBL document CHEMBL3638563, “Quinazoline compounds as kinase inhibitors” (2014).

pIC50: −log10 of the molar value.

For assay [1], the target named is Serine/threonine-protein kinase B-raf (Homo sapiens, UniProt P15056). The assay can be described thus: (§1) Kinase Assay: Inhibition of kinase activity by test compound disclosed herein was estimated by quantifying the amount of [33P] incorporation of substrate in the presence of test compound. Standard assay conditions were 2 ng of recombinant C-Raf or 5 ng of recombinant B-Raf or 5 ng of recombinant B-Raf (V600E) kinase (Upstate Biotechnology) with 500 ng MEK1(K97R) in assay buffer {8 μM ATP, 0.5 μCi [33P]ATP (specific activity 3000 Ci/mmol, PerkinElmer), 50 mM Tris/HCl (pH7.5), and 1 mM EGTA, 1 mM Na3VO4, 1% 2-mercaptoethanol, 0.1% Brij 35, and 0.2 mg/ml BSA} at a final volume of 25 μL. Reactions were incubated at 30° C. for 30 min and stopped by adding 3% phosphoric acid, harvested onto a 96-well GF/B UniFilter (PerkinElmer) using a unifilter harvester (PerkinElmer), and counted with a TopCount microplate scintillation counter (PerkinElmer). The IC50 values of inhibitors were determined after carrying out assays at 3-fold serially diluted concentrations of each compound in duplication.

The target of assay [2] is RAF proto-oncogene serine/threonine-protein kinase (Homo sapiens, UniProt P04049). The assay is described as §1.
Sequence of RAF proto-oncogene serine/threonine-protein kinase (P04049 whole entry): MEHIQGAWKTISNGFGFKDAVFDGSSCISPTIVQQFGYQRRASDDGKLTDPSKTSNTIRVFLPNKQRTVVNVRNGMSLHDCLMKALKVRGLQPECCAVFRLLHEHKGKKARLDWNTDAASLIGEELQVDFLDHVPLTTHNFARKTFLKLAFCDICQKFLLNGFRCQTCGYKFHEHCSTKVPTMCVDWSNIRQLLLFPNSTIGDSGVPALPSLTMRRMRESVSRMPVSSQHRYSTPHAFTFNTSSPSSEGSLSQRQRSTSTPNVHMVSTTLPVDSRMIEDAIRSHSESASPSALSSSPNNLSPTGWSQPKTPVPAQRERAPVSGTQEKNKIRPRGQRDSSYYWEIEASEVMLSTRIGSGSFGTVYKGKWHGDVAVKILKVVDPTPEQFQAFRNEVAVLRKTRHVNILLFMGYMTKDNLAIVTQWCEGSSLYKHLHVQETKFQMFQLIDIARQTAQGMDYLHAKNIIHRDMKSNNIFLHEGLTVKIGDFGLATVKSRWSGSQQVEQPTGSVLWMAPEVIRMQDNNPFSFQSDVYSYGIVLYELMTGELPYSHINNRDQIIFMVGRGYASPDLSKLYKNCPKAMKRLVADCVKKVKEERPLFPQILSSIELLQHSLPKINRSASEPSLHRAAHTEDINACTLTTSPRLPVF

Sequence of Serine/threonine-protein kinase B-raf (P15056 whole entry): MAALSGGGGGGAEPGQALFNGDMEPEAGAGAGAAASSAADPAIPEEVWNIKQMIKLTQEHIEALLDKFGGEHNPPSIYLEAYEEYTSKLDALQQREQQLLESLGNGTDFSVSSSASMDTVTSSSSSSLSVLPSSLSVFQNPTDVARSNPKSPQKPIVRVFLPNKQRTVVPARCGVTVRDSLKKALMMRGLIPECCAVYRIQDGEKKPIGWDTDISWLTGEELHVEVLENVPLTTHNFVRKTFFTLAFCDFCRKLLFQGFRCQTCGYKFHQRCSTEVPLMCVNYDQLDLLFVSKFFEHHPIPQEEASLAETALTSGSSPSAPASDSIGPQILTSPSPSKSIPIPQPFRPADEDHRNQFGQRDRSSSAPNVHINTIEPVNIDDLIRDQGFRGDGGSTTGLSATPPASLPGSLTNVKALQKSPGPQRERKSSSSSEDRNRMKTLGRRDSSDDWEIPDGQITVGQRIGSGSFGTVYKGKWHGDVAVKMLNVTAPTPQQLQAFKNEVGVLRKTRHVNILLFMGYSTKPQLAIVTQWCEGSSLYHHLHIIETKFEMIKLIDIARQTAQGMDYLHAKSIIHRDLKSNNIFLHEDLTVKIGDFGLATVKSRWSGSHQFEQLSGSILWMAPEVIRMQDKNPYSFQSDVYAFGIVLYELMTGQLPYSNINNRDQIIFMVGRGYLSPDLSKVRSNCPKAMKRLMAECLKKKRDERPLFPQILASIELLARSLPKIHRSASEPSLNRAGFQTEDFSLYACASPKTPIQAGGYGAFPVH

For orientation: pIC50 means the IC50 on a negative log10 scale, so that one unit is a factor of ten. Consider `Nc1ccc(F)c(-c2ccc3ncnc(Nc4cccc5[nH]ncc45)c3c2)c1`, for which the pIC50 is 6.60 in assay [1] and 5.63 in assay [2].
